These results are taken from US9598424B2 (Takeda Pharmaceutical Company Limited, priority 2014, dated 2017).

Test [1] deals with T1, TBK1 (Homo sapiens, UniProt Q9UHD2).
T1 construct: host or cells: RA1-ISRE beta-lactamase reporter cells
T1 sequence (Q9UHD2 1-729): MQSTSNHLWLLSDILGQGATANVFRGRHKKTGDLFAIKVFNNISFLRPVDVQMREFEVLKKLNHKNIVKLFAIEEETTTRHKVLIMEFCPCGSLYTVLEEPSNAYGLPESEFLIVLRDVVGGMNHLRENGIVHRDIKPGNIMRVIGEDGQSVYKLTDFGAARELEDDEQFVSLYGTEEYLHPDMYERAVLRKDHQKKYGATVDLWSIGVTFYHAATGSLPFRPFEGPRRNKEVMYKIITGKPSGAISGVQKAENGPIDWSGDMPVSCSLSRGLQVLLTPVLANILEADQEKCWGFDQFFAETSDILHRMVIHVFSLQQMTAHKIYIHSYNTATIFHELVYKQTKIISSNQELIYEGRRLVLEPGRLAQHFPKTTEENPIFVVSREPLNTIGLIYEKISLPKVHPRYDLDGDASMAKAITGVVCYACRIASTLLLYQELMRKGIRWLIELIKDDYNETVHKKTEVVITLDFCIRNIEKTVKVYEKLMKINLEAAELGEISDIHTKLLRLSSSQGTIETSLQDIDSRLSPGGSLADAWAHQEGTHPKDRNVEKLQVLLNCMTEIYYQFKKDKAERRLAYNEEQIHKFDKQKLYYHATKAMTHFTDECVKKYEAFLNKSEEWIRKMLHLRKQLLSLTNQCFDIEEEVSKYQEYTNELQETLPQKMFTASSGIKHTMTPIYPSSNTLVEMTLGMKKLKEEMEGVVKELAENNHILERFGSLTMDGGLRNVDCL
Briefly: Inhibition of TBK1 in Cells (TLR3 driven ISRE β-lactamase reporter assay). The format is cell-based. The note with it: poly IC-LMW stimulation 16 hrs; -log(EC50), EC50 molar; read-out: Inhibition of TBK1 in cells pEC50 (EC) (converted). The protocol:
TBK1 inhibition is determined using a TLR3 driven RA1-ISRE β-lacatamase reporter assay (Life Technologies). In the assay 50,000 cells/well are plated in black clear bottom 384 well plate. Each test compound is prepared in DMSO using 2.5-fold serial dilutions for 11 data points, which are then added to the media. Cells are stimulated with 0.15 mg/ml poly IC-LMW (Invivogen) for 16 hrs. Reporter activity is detected using the LiveBLAzer-FRET B/G CCF4-AM substrate (Life Technologies) and the plate is read using the Spectramax M5 instrument. Corresponding EC50 values are calculated by non-linear curve fitting of the compound concentrations and percent of inhibition to the standard EC50 equation and reported as pEC50, i.e., −log(EC50), where EC50 is the molar concentration.

Test [2] deals with T2, Full length human TBK1 (Homo sapiens, UniProt Q9UHD2).
T2 construct: Full length human TBK1 with an N-terminal His-tag; His-tag (N); made in house; host or cells: Sf9 insect cells (baculovirus, pFastBac1)
T2 sequence (Q9UHD2 1-729): T1 sequence (Q9UHD2 1-729)
The test is described as follows: Inhibition of TBK1 Enzyme (Caliper microfluidic assay). In kind it is biochemical. The note with it: 25 μM ATP, 60 min at RT; -log(IC50), IC50 molar; read-out: TBK1 Inhibition (pIC50) (converted). On the procedure: Full length human TBK1 with an N-terminal His-tag was cloned into the pFastBacl vector and was transfected into Sf9 cells. 72 hours later the virus was harvested and amplified through two additional rounds of infections. Then 400 ml of the resulting virus stock was used to infect 10L of Sf9 cells at a density of 2×10^6 cells/ml. Cell pellets were harvested 48 hours post infection and were lysed by freeze-thaw, homogenization and sonication in binding buffer (25 mM Tris pH7.6, 1 M NaCl, 10 mM imidazole, 0.5 mM TCEP) plus 0.1% Triton X-100 and complete protease inhibitor cocktail. The lysate was spun and the supernatant was purified with a HisTrap FF crude and a Superdex 200 pg column.
TBK1 inhibition is determined using a 384 well plate format in buffer containing 20 mM Hepes, pH 7.4, 10 mM MgCl2, 1 mM EDTA, 0.01% Brij-L23, 1 mM DTT. Each test compound is prepared in DMSO using 2.5-fold serial dilutions for 11 data points, which are added to the buffer so that each dilution contains 1% DMSO. To each well is added 2 μL of 1 μm 5FAM-DRHDSGLDSMKDE-NH2 (in buffer), 2 μL of diluted test compound (1% DMSO in buffer), and 5 μL of 3 nM TBK1 and 25 μM ATP (in buffer). The reaction mixture is incubated at RT for 60 min, and quenched by adding 20 mM Hepes, pH 7.4, 10 mM MgCl2, 1 mM EDTA, 0.01% Brij-L23, 1 mM DTT+25 mM EDTA. To quantify the fluorescent-labeled substrate and product following reaction, the test plate is loaded on a Caliper LC-3000, which measures percent of conversion by microfluidic-based separation. Corresponding IC50 values are calculated by non-linear curve fitting of the compound concentrations and percent of inhibition to the standard IC50 equation and reported as pIC50, i.e., −log(IC50), where IC50 is the molar concentration.

Regarding `O=C(Nc1cn2cc(-c3csc(C(=O)N(CCO)CC(F)(F)F)c3)ccc2n1)C1CC1` [Example 120, 4-(2-(cyclopropanecarboxamido)imidazo[1,2-a]pyridin-6-yl)-N-(2-hydroxyethyl)-N-(2,2,2-trifluoroethyl)thiophene-2-carboxamide], the EC50 in test [1] was 0.851 µM. For the same molecule, the IC50 in test [2] was 0.158 µM.

Consider `O=C(N[C@H]1CCCC[C@H]1O)c1cc(-c2ccc3nc(NC(=O)C4CC4)cn3c2)cs1` [Example 76, 4-(2-(cyclopropanecarboxamido)imidazo[1,2-a]pyridin-6-yl)-N-((1S,2R)-2-hydroxycyclohexyl)thiophene-2-carboxamide], for which, in test [1], the EC50 was 0.912 µM. Further, in test [2], the IC50 was 0.0158 µM.

With `O=C(N[C@H]1CCOC1)c1nc(-c2ccc3nc(NC(=O)C4CC4)cn3c2)cs1` [Example 87, (S)-4-(2-(cyclopropanecarboxamido)imidazo[1,2-a]pyridin-6-yl)-N-(tetrahydrofuran-3-yl)thiazole-2-carboxamide], in test [1], the EC50 is 2.88 µM. For the same molecule, in test [2], the IC50 was 0.0631 µM.

Turning to `O=C(NCC(F)(F)F)c1cc(-c2ccc3nc(NC(=O)C4CC4)cn3c2)sn1` [Example 26, 5-(2-(cyclopropanecarboxamido)imidazo[1,2-a]pyridin-6-yl)-N-(2,2,2-trifluoroethyl)isothiazole-3-carboxamide], in test [1], the EC50 is 0.759 µM. Further, the IC50 in test [2] is 0.0794 µM.

Take `O=C(Nc1cn2cc(-c3cc(C(=O)N4CCC(F)CC4)[nH]n3)ccc2n1)C1CC1` [Example 105, N-(6-(5-(4-fluoropiperidine-1-carbonyl)-1H-pyrazol-3-yl)imidazo[1,2-a]pyridin-2-yl)cyclopropanecarboxamide]: in test [1], the EC50 was 5.37 µM. In test [2], the IC50 was 0.316 µM.

For `O=C(Nc1cn2cc(-c3csc(C(=O)N4CCCC4C(F)(F)F)c3)ccc2n1)C1CC1` (stereo not shown) [Example 60, N-(6-(5-(2-(trifluoromethyl)pyrrolidine-1-carbonyl)thiophen-3-yl)imidazo[1,2-a]pyridin-2-yl)cyclopropanecarboxamide], the EC50 in test [1] is 0.234 µM. For the same molecule, in test [2], the IC50 is 0.0158 µM.

As for `O=C(NCCC(F)(F)F)c1nc(-c2ccc3nc(NC(=O)C4CC4)cn3c2)cs1` [Example 92, 4-(2-(cyclopropanecarboxamido)imidazo[1,2-a]pyridin-6-yl)-N-(3,3,3-trifluoropropyl)thiazole-2-carboxamide], in test [1], the EC50 is 1.12 µM. Further, in test [2], the IC50 is 0.0501 µM.

On to `O=C(NCC(F)(F)F)c1nc(-c2ccc3nc(NC(=O)C4CC4)cn3n2)cs1` [Example 21, 4-(2-(cyclopropanecarboxamido)imidazo[1,2-b]pyridazin-6-yl)-N-(2,2,2-trifluoroethyl)thiazole-2-carboxamide], for which the EC50 in test [1] was 3.39 µM. Further, the IC50 in test [2] is 0.0501 µM.

In the case of `O=C(N[C@H]1CCC[C@H]1O)c1nc(-c2ccc3nc(NC(=O)C4CC4)cn3c2)cs1` [Example 89, 4-(2-(cyclopropanecarboxamido)imidazo[1,2-a]pyridin-6-yl)-N-((1S, 2R)-2-hydroxycyclopentyl)thiazole-2-carboxamide], the EC50 in test [1] was 1.02 µM. In addition, the IC50 in test [2] is 0.0316 µM.

On to `O=C(NCC(F)F)c1cc(-c2ccc3nc(NC(=O)C4CC4)cn3n2)cs1` [Example 18, 4-(2-(cyclopropanecarboxamido)imidazo[1,2-b]pyridazin-6-yl)-N-(2,2-difluoroethyl)thiophene-2-carboxamide], for which, in test [1], the EC50 was 0.251 µM. In test [2], the IC50 is 0.01 µM.

As for `CC(=O)N1CCC(NC(=O)c2cc(-c3ccc4nc(NC(=O)C5CC5)cn4c3)cs2)C1` (stereo not shown) [Example 79, N-(1-acetylpyrrolidin-3-yl)-4-(2-(cyclopropanecarboxamido)imidazo[1,2-a]pyridin-6-yl)thiophene-2-carboxamide], the EC50 in test [1] is 22.9 µM. In test [2], the IC50 was 0.0794 µM.

For `CC(C)CNC(=O)c1cc(-c2ccc3nc(NC(=O)C4CC4)cn3c2)cs1` [Example 63, 4-(2-(cyclopropanecarboxamido)imidazo[1,2-a]pyridin-6-yl)-N-isobutylthiophene-2-carboxamide], the EC50 in test [1] is 0.372 µM. In addition, in test [2], the IC50 was 0.0158 µM.

As for `NC(=O)C1CCN(C(=O)c2nc(-c3ccc4nc(NC(=O)C5CC5)cn4c3)cs2)C1` (stereo not shown) [Example 98, 1-(4-(2-(cyclopropanecarboxamido)imidazo[1,2-a]pyridin-6-yl)thiazole-2-carbonyl)pyrrolidine-3-carboxamide], in test [1], the EC50 is 14.5 µM. For the same molecule, the IC50 in test [2] was 0.2 µM.

Consider `O=C(CF)Nc1cn2cc(-c3csc(C(=O)NCC(F)(F)F)c3)ccc2n1` [Example 16, 4-(2-(2-fluoroacetamido)imidazo[1,2-a]pyridin-6-yl)-N-(2,2,2-trifluoroethyl)thiophene-2-carboxamide], for which the EC50 in test [1] is 1.05 µM. For the same molecule, the IC50 in test [2] is 0.0794 µM.

In the case of `C[C@@H](NC(=O)c1cc(-c2ccc3nc(NC(=O)C4CC4)cn3c2)n[nH]1)C(F)(F)F` [Example 104, (R)-3-(2-(cyclopropanecarboxamido)imidazo[1,2-a]pyridin-6-yl)-N-(1,1,1-trifluoropropan-2-yl)-1H-pyrazole-5-carboxamide], the EC50 in test [1] was 0.166 µM. For the same molecule, the IC50 in test [2] is 0.00501 µM.

Take `O=C(NCC(F)F)c1ccn(-c2cn3cc(NC(=O)C4CC4)nc3cn2)n1` [Example 38, 1-(2-(cyclopropanecarboxamido)imidazo[1,2-a]pyrazin-6-yl)-N-(2,2-difluoroethyl)-1H-pyrazole-3-carboxamide]: the EC50 in test [1] is 1.17 µM. In addition, the IC50 in test [2] is 0.0251 µM.

Regarding `CC1CCN(C(=O)c2nc(-c3ccc4nc(NC(=O)C5CC5)cn4c3)cs2)C1` (stereo not shown) [Example 103, N-(6-(2-(3-methylpyrrolidine-1-carbonyl)thiazol-4-yl)imidazo[1,2-a]pyridin-2-yl)cyclopropanecarboxamide], the EC50 in test [1] is 0.794 µM. The IC50 in test [2] was 0.0794 µM.

For the molecule `CC(NC(=O)c1nc(-c2ccc3nc(NC(=O)C4CC4)cn3c2)c[nH]1)C(F)(F)F` (stereo not shown) [Example 24, 4-(2-(cyclopropanecarboxamido)imidazo[1,2-a]pyridin-6-yl)-N-(1,1,1-trifluoropropan-2-yl)-1H-imidazole-2-carboxamide], the EC50 in test [1] was 0.468 µM. Further, in test [2], the IC50 is 0.0251 µM.

Take `O=C(NCC(F)F)c1nc(-c2ccc3nc(NC(=O)C4CC4)cn3n2)cs1` [Example 8, 4-(2-(cyclopropanecarboxamido)imidazo[1,2-b]pyridazin-6-yl)-N-(2,2-difluoroethyl)thiazole-2-carboxamide]: the EC50 in test [1] was 9.12 µM. Moreover, in test [2], the IC50 was 0.2 µM.

With `O=C(Nc1cn2cc(-c3csc(C(=O)N4CCCC4CO)n3)ccc2n1)C1CC1` (stereo not shown) [Example 114, N-(6-(2-(2-(hydroxymethyl)pyrrolidine-1-carbonyl)thiazol-4-yl)imidazo[1,2-a]pyridin-2-yl)cyclopropanecarboxamide], the EC50 in test [1] is 1.62 µM. Besides, the IC50 in test [2] was 0.158 µM.
